Laboratory results as given in patent publication US8853217B2, “Compounds useful as inhibitors of ATR kinase” (Vertex Pharmaceuticals Incorporated, priority 2011, dated 2014).

What was measured:
[1] = Pharmacokinetics following intravenous dosing; settings: in vivo
Description: Noncompartmental pharmacokinetic parameters were analyzed using Watson Bioanalytical LIMS (Version 7.4; Thermo Fisher Scientific) from either the blood or plasma samples. The following parameters were estimated following intravenous (IV) dosing; terminal elimination half-life (T1/2=ln(2)/λz, where λz is the first order rate constant associated with the terminal (log-linear) portion of the curve.
The area under the curve (AUClast=area under the curve from the time of dosing to the last measurable concentration). The area under the curve extrapolated to infinity (AUC0-∞=AUClast+Clast/λz). The clearance (Cl; Cl=DoseIV/AUC0-∞). The area under the first moment curve (AUMClast=area under the concentration times time versus time curve from the time of dosing to the last measurable concentration). The area under the first moment curve extrapolated to infinity (AUMC0-∞=AUMClast+Clast×t/λz+Clast/λz^2). The mean residence time (MRT=AUMC0-∞/AUC0-∞) and the steady state volume of distribution (Vdss=MRT×Cl) (see Table 2 below for data).
Clearance and volume of distribution can also be obtained using methods known to one of skill in the art (see e.g., Handbook of Essential Pharmacokinetics, Pharmacodynamics and Drug Metabolism for Industrial Scientists, Younggil Kwon, pp 18-28 (Non-compartmental Approach)).

[2] = molecular target: T1, intracellular ATR (Homo sapiens, UniProt Q13535); test: Cellular ATR Inhibition Assay (phosphorylated H2AX immunofluorescence in hydroxyurea treated HT29 cells); assay type: cell-based; settings: 2 mM hydroxyurea, phosphorylated H2AX Ser139
T1 construct: endogenous in cells; host or cells: HT29
T1 sequence (Q13535 whole entry): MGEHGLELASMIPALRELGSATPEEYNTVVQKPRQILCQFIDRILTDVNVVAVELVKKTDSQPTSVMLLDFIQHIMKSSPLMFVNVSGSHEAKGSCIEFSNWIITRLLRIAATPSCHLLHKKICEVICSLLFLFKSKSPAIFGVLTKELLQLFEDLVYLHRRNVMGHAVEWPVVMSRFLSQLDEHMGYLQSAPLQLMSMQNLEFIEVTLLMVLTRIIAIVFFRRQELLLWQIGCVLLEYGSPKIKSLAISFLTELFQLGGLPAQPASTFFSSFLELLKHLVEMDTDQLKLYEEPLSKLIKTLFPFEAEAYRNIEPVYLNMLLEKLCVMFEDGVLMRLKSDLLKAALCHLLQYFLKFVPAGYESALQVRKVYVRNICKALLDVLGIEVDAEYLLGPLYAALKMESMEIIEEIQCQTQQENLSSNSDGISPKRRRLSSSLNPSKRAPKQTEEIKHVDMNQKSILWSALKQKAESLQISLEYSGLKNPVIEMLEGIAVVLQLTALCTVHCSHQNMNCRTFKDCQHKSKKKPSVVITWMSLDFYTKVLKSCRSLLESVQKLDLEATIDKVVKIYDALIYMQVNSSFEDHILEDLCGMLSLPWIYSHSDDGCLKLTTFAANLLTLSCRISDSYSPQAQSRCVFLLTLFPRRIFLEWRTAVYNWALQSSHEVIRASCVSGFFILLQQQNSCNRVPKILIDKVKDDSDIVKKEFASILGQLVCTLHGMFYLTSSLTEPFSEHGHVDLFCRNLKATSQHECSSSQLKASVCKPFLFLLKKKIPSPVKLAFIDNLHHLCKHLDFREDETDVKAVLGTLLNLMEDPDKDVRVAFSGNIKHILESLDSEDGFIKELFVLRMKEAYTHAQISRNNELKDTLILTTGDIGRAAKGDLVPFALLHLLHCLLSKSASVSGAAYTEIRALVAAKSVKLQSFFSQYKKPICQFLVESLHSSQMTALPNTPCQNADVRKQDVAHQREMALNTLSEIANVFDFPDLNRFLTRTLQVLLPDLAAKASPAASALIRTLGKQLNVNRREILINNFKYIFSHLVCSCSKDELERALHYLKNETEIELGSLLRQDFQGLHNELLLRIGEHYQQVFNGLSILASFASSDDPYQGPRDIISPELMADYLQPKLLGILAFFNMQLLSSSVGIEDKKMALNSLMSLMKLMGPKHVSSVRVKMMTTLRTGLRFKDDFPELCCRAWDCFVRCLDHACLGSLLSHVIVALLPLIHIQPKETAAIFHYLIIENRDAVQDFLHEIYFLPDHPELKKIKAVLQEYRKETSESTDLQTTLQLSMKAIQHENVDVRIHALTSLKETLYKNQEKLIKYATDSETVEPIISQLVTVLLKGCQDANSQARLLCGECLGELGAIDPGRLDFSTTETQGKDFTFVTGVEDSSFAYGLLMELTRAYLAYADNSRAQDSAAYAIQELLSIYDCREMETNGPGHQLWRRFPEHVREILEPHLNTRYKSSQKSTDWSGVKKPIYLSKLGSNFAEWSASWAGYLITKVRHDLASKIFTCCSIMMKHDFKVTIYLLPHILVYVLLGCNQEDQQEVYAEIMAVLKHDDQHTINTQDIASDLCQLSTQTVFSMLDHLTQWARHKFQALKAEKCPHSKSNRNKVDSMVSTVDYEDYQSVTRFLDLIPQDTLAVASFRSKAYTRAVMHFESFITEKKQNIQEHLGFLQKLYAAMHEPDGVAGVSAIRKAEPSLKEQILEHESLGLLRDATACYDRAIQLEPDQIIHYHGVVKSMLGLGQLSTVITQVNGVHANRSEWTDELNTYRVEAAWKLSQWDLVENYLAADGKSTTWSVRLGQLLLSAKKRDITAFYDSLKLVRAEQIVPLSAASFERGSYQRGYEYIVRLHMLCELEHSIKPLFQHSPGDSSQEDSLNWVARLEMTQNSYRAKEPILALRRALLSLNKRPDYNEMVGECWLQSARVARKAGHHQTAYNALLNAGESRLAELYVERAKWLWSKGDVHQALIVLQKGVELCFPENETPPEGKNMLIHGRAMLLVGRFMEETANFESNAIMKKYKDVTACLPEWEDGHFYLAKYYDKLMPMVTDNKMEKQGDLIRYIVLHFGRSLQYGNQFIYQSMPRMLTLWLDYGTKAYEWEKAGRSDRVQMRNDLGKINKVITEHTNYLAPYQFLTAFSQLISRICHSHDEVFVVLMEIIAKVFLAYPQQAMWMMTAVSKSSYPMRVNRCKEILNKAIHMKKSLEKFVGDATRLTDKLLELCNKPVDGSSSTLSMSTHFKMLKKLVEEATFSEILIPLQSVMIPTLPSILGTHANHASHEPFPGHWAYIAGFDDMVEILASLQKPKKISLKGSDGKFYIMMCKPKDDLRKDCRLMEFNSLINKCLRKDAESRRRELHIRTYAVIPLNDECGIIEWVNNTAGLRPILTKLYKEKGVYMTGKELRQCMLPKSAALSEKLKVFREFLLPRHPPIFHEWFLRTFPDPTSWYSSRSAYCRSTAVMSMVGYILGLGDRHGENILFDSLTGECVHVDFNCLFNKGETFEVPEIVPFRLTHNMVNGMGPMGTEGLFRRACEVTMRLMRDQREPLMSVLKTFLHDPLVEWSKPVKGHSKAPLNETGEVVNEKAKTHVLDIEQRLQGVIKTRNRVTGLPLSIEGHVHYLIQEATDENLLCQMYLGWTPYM
T1 sequence (Q8WXE1 whole entry partner): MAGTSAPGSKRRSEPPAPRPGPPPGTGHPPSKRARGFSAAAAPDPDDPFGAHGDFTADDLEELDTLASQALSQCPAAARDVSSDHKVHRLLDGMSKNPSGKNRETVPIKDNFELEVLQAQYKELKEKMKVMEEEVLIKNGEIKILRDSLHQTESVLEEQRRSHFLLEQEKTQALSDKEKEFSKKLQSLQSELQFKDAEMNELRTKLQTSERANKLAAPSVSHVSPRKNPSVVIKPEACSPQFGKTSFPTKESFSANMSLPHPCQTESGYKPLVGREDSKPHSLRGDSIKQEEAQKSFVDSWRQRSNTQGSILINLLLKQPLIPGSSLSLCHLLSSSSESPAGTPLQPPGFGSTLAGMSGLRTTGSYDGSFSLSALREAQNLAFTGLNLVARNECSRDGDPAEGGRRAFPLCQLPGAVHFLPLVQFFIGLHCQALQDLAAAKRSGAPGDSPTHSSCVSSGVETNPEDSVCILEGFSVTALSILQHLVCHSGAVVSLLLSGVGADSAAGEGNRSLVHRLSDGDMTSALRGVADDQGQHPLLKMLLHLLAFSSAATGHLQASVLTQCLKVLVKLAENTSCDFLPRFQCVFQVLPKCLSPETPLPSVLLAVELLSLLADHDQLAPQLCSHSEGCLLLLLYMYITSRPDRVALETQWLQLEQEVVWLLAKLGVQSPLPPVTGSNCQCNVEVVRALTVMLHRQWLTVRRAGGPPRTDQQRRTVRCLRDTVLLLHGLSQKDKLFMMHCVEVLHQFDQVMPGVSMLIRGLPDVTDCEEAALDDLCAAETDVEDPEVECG
Description: Compounds can be screened for their ability to inhibit intracellular ATR using an immunofluorescence microscopy assay to detect phosphorylation of the ATR substrate histone H2AX in hydroxyurea treated cells. HT29 cells are plated at 14,000 cells per well in 96-well black imaging plates (BD 353219) in McCoy's 5A media (Sigma M8403) supplemented with 10% foetal bovine serum (JRH Biosciences 12003), Penicillin/Streptomycin solution diluted 1:100 (Sigma P7539), and 2 mM L-glumtamine (Sigma G7513), and allowed to adhere overnight at 37° C. in 5% CO2. Compounds are then added to the cell media from a final concentration of 25 μM in 3-fold serial dilutions and the cells are incubated at 37° C. in 5% CO2. […]
Cells are imaged for Alexa Fluor 488 and Hoechst intensity using the BD Pathway 855 Bioimager and Attovision software (BD Biosciences, Version 1.6/855) to quantify phosphorylated H2AX Ser139 and DNA staining, respectively. The percentage of phosphorylated H2AX-positive nuclei in a montage of 9 images at 20× magnification is then calculated for each well using BD Image Data Explorer software (BD Biosciences Version 2.2.15). […] The percentage of H2AX positive nuclei is finally plotted against concentration for each compound and IC50s for intracellular ATR inhibition are determined using Prism software (GraphPad Prism version 3.0cx for Macintosh, GraphPad Software, San Diego Calif., USA).

[3] = molecular target: T2, full-length ATR (Homo sapiens, UniProt Q13535); test: ATR Inhibition Assay (radioactive-phosphate incorporation); assay type: biochemical; settings: Ki(app); 10 μM ATP, 5 nM full-length ATR, 25° C.
T2 construct: Assays were carried out at 25° C. in the presence of 5 nM full-length ATR
T2 sequence (Q13535 whole entry): as the sequence (Q13535 whole entry) above
Description: Compounds were screened for their ability to inhibit ATR kinase using a radioactive-phosphate incorporation assay. Assays were carried out in a mixture of 50 mM Tris/HCl (pH 7.5), 10 mM MgCl2 and 1 mM DTT. Final substrate concentrations were 10 μM [γ-33P]ATP (3 mCi 33P ATP/mmol ATP, Perkin Elmer) and 800 μM target peptide (ASELPASQPQPFSAKKK (SEQ ID NO: 1)).
Assays were carried out at 25° C. in the presence of 5 nM full-length ATR. An assay stock buffer solution was prepared containing all of the reagents listed above, with the exception of ATP and the test compound of interest. 13.5 μL of the stock solution was placed in a 96 well plate followed by addition of 2 μL of DMSO stock containing serial dilutions of the test compound (typically starting from a final concentration of 15 μM with 3-fold serial dilutions) in duplicate (final DMSO concentration 7%). The plate was pre-incubated for 10 minutes at 25° C. and the reaction initiated by addition of 15 μL [γ-33P]ATP (final concentration 10 μM).
The reaction was stopped after […] by the addition of 30 μL 0.1M phosphoric acid containing 2 mM ATP. […]
After removing mean background values for all of the data points, Ki(app) data were calculated from non-linear regression analysis of the initial rate data using the Prism software package (GraphPad Prism version 3.0cx for Macintosh, GraphPad Software, San Diego Calif., USA). […]

[4] = system: HCT116 colorectal cancer cells; test: Cisplatin Sensitization Assay, 96 h cell viability (MTS); assay type: cell-based; settings: concentration of compound required to reduce the IC50 of Cisplatin alone by at least 3-fold; HCT116, 96 h
Description: Compounds can be screened for their ability to sensitize HCT116 colorectal cancer cells to Cisplatin using a 96 h cell viability (MTS) assay. […] Compounds and Cisplatin are then both added simultaneously to the cell media in 2-fold serial dilutions from a top final concentration of 10 μM as a full matrix of concentrations in a final cell volume of 200 μl, and the cells are then incubated at 37° C. in 5% CO2. After 96 h, 40 μl of MTS reagent (Promega G358a) is added to each well and the cells are incubated for 1 h at 37° C. in 5% CO2. Finally, absorbance is measured at 490 nm using a SpectraMax Plus 384 reader (Molecular Devices) and the concentration of compound required to reduce the IC50 of Cisplatin alone by at least 3-fold (to 1 decimal place) can be reported.

[5] = system: HCT116 colorectal cancer cells; test: Single Agent HCT116 Activity, 96 h cell viability (MTS) assay; assay type: cell-based; settings: Homo sapiens, HCT-116, read-out: Single agent HT116 IC50
Description: Compounds can be screened for single agent activity against HCT116 colorectal cancer cells using a 96 h cell viability (MTS) assay. HCT116 are plated at 470 cells per well in 96-well polystyrene plates (Costar 3596) in 150 μl of McCoy's 5A media (Sigma M8403) supplemented with 10% foetal bovine serum (JRH Biosciences 12003), Penicillin/Streptomycin solution diluted 1:100 (Sigma P7539), and 2 mM L-glumtamine (Sigma G7513), and allowed to adhere overnight at 37° C. in 5% CO2. Compounds are then added to the cell media in 2-fold serial dilutions from a top final concentration of 10 μM as a full matrix of concentrations in a final cell volume of 200 μl, and the cells are then incubated at 37° C. in 5% CO2. After 96 h, 40 μl of MTS reagent (Promega G358a) is added to each well and the cells are incubated for 1 h at 37° C. in 5% CO2. Finally, absorbance is measured at 490 nm using a SpectraMax Plus 384 reader (Molecular Devices) and IC50 values can be calculated (see Table 2 below for data).

Q: What does the source list for `CC(C)S(=O)(=O)c1ccc(-c2cnc(N)c(-c3cc(-c4ccc(CNCC5COC5)cc4)no3)n2)cc1` [I, 5-(4-(isopropylsulfonyl)phenyl)-3-(3-(4-((oxetan-3-ylmethylamino)methyl)phenyl)isoxazol-5-yl)pyrazin-2-amine]?
A: clearance ([1]; blood or plasma samples): 6 mL/min/kg; Vd ([1]; steady state volume of distribution, read-out: Vss): 0.9 L/kg; IC50 [2]: 16 nM; Ki [3]: 0.21 nM; Cisplatin sensitization [4]: 39 nM; IC50 [5]: 62 nM
